Measured values: ChEMBL document CHEMBL4373745, “Design, synthesis and cytotoxicity of BODIPY FL labelled triterpenoids” (Eur J Med Chem, 2020)

Legend:
[1] = test system: A-375; experiment: Cytotoxicity against human A375 cells assessed as reduction in cell viability incubated for 96 hrs by SRB assay; format: functional, cell-based; details: A-375, 96 h
[2] = test system: HT-29; experiment: Cytotoxicity against human HT-29 cells assessed as reduction in cell viability incubated for 96 hrs by SRB assay; format: functional, cell-based; details: HT-29, 96 h
[3] = test system: MCF7; experiment: Cytotoxicity against human MCF7 cells assessed as reduction in cell viability incubated for 96 hrs by SRB assay; format: functional, cell-based; details: MCF7, 96 h
[4] = test system: A2780; experiment: Cytotoxicity against human A2780 cells assessed as reduction in cell viability incubated for 96 hrs by SRB assay; format: functional, cell-based; details: A2780, 96 h
[5] = test system: FaDu; experiment: Cytotoxicity against human FADU cells assessed as reduction in cell viability incubated for 96 hrs by SRB assay; format: functional, cell-based
[6] = test system: NIH3T3; experiment: Cytotoxicity against mouse NIH/3T3 cells assessed as reduction in cell viability incubated for 96 hrs by SRB assay; format: cell-based; details: NIH3T3, 96 h

CC(=O)O[C@H]1CC[C@]2(C)[C@H]3CC=C4[C@@H]5CC(C)(C)CC[C@]5(C(=O)NCCNC(=O)CCC5=[N+]6C(=Cc7c(C)cc(C)n7[B-]6(F)F)C=C5)CC[C@@]4(C)[C@]3(C)CC[C@H]2C1(C)C
EC50 [1]: 4.3 µM | EC50 [2]: > 30 µM | EC50 [3]: 2.3 µM | EC50 [4]: 10.3 µM | EC50 [5]: 7 µM | EC50 [6]: 3.4 µM

C[C@H]1[C@H](C)CC[C@]2(C(=O)O)CC[C@]3(C)C(=CC[C@@H]4[C@@]5(C)CC[C@H](O)C(C)(C)[C@@H]5CC[C@]43C)[C@H]12 [URSOLIC ACID]
EC50 [6]: 13.1 µM

C=C(C)[C@@H]1CC[C@]2(COC(C)=O)CC[C@]3(C)[C@H](CC[C@@H]4[C@@]5(C)CC[C@H](OC(=O)CCC6=[N+]7C(=Cc8c(C)cc(C)n8[B-]7(F)F)C=C6)C(C)(C)[C@@H]5CC[C@]43C)[C@@H]12
EC50 [2]: 3.1 µM | EC50 [3]: 4.3 µM | EC50 [4]: 2.7 µM | EC50 [5]: 4.7 µM | EC50 [6]: 9.2 µM

C=C(C)[C@@H]1CC[C@]2(C(=O)NCCN)CC[C@]3(C)[C@H](CC[C@@H]4[C@@]5(C)CC[C@H](OC(C)=O)C(C)(C)[C@@H]5CC[C@]43C)[C@@H]12
EC50 [2]: 1 µM | EC50 [3]: 1.3 µM | EC50 [4]: 1.4 µM | EC50 [5]: 1.2 µM | EC50 [6]: 1.4 µM

CC(=O)O[C@H]1CC[C@]2(C)[C@H]3CC=C4[C@@H]5[C@@H](C)[C@H](C)CC[C@]5(C(=O)N5CCN(C(=O)CCC6=[N+]7C(=Cc8c(C)cc(C)n8[B-]7(F)F)C=C6)CC5)CC[C@@]4(C)[C@]3(C)CC[C@H]2C1(C)C
EC50 [1]: 21.6 µM | EC50 [2]: > 30 µM | EC50 [3]: 24.4 µM | EC50 [4]: > 30 µM | EC50 [5]: > 30 µM | EC50 [6]: > 30 µM

CC(=O)O[C@H]1CC[C@]2(C)[C@H]3CC=C4[C@@H]5CC(C)(C)CC[C@]5(C(=O)N5CCN(C(=O)CCC6=[N+]7C(=Cc8c(C)cc(C)n8[B-]7(F)F)C=C6)CC5)CC[C@@]4(C)[C@]3(C)CC[C@H]2C1(C)C
EC50 [1]: 29.8 µM | EC50 [2]: > 30 µM | EC50 [3]: > 30 µM | EC50 [4]: > 30 µM | EC50 [5]: > 30 µM | EC50 [6]: > 30 µM

C=C(C)[C@@H]1CC[C@]2(CO)CC[C@]3(C)[C@H](CC[C@@H]4[C@@]5(C)CC[C@H](O)C(C)(C)[C@@H]5CC[C@]43C)[C@@H]12 [BETULIN]
EC50 [1]: > 30 µM | EC50 [2]: > 30 µM | EC50 [3]: > 30 µM | EC50 [4]: > 30 µM | EC50 [5]: > 30 µM | EC50 [6]: > 30 µM

CC(=O)O[C@H]1CC[C@]2(C)[C@H]3C(=O)C=C4[C@@H]5C[C@@](C)(C(=O)N6CCN(C(=O)CCC7=[N+]8C(=Cc9c(C)cc(C)n9[B-]8(F)F)C=C7)CC6)CC[C@]5(C)CC[C@@]4(C)[C@]3(C)CC[C@H]2C1(C)C
EC50 [1]: 8.3 µM | EC50 [2]: > 30 µM | EC50 [3]: 7.9 µM | EC50 [4]: 7.8 µM | EC50 [5]: 8.6 µM | EC50 [6]: 9.1 µM

C=C(C)[C@@H]1CC[C@]2(C(=O)N3CCNCC3)CC[C@]3(C)[C@H](CC[C@@H]4[C@@]5(C)CC[C@H](OC(C)=O)C(C)(C)[C@@H]5CC[C@]43C)[C@@H]12
EC50 [5]: 1.3 µM

CC1(C)CC[C@]2(C(=O)O)CC[C@]3(C)C(=CC[C@@H]4[C@@]5(C)CC[C@H](O)C(C)(C)[C@@H]5CC[C@]43C)[C@@H]2C1 [OLEANOLIC_ACID]
EC50 [4]: > 30 µM | EC50 [5]: > 30 µM

C=C(C)[C@@H]1CC[C@]2(COC(=O)CCC3=[N+]4C(=Cc5c(C)cc(C)n5[B-]4(F)F)C=C3)CC[C@]3(C)[C@H](CC[C@@H]4[C@@]5(C)CC[C@H](OC(C)=O)C(C)(C)[C@@H]5CC[C@]43C)[C@@H]12
EC50 [1]: > 30 µM | EC50 [2]: > 30 µM | EC50 [3]: 28.9 µM | EC50 [4]: > 30 µM | EC50 [5]: > 30 µM | EC50 [6]: > 30 µM

CC(=O)O[C@H]1CC[C@]2(C)[C@H]3C(=O)C=C4[C@@H]5C[C@@](C)(C(=O)NCCN)CC[C@]5(C)CC[C@@]4(C)[C@]3(C)CC[C@H]2C1(C)C
EC50 [2]: 4.3 µM | EC50 [3]: 3.2 µM | EC50 [4]: 2 µM | EC50 [5]: 5.7 µM | EC50 [6]: 4.3 µM

CC(=O)O[C@H]1CC[C@]2(C)[C@H]3C(=O)C=C4[C@@H]5C[C@@](C)(C(=O)N6CCNCC6)CC[C@]5(C)CC[C@@]4(C)[C@]3(C)CC[C@H]2C1(C)C
EC50 [2]: 4.4 µM | EC50 [3]: 8.4 µM | EC50 [4]: 8.2 µM | EC50 [5]: 8.7 µM | EC50 [6]: 8.7 µM

C=C(C)[C@@H]1CC[C@]2(COC(C)=O)CC[C@]3(C)[C@H](CC[C@@H]4[C@@]5(C)CC[C@H](OC(C)=O)C(C)(C)[C@@H]5CC[C@]43C)[C@@H]12 [BETULIN DIACETATE]
EC50 [1]: > 30 µM | EC50 [2]: > 30 µM | EC50 [3]: > 30 µM | EC50 [4]: > 30 µM | EC50 [5]: > 30 µM | EC50 [6]: > 30 µM

CC(=O)O[C@H]1CC[C@]2(C)[C@H]3CC=C4[C@@H]5CC(C)(C)CC[C@]5(C(=O)N5CCNCC5)CC[C@@]4(C)[C@]3(C)CC[C@H]2C1(C)C
EC50 [5]: 1.6 µM

C=C(C)[C@@H]1CC[C@]2(CO)CC[C@]3(C)[C@H](CC[C@@H]4[C@@]5(C)CC[C@H](OC(C)=O)C(C)(C)[C@@H]5CC[C@]43C)[C@@H]12
EC50 [1]: > 30 µM | EC50 [2]: > 30 µM | EC50 [5]: > 30 µM | EC50 [6]: > 30 µM

CC1(C)[C@@H](O)CC[C@]2(C)[C@H]3C(=O)C=C4[C@@H]5C[C@@](C)(C(=O)O)CC[C@]5(C)CC[C@@]4(C)[C@]3(C)CC[C@@H]12 [ENOXOLONE]
EC50 [5]: > 30 µM

CC(=O)O[C@H]1CC[C@]2(C)[C@H]3CC=C4[C@@H]5[C@@H](C)[C@H](C)CC[C@]5(C(=O)N5CCNCC5)CC[C@@]4(C)[C@]3(C)CC[C@H]2C1(C)C
EC50 [5]: 1.9 µM

C=C(C)[C@@H]1CC[C@]2(C(=O)NCCNC(=O)CCC3=[N+]4C(=Cc5c(C)cc(C)n5[B-]4(F)F)C=C3)CC[C@]3(C)[C@H](CC[C@@H]4[C@@]5(C)CC[C@H](OC(C)=O)C(C)(C)[C@@H]5CC[C@]43C)[C@@H]12
EC50 [1]: > 30 µM | EC50 [2]: > 30 µM | EC50 [3]: 11.3 µM | EC50 [4]: > 30 µM | EC50 [5]: > 30 µM | EC50 [6]: > 30 µM

CC(=O)O[C@H]1CC[C@]2(C)[C@H]3CC=C4[C@@H]5CC(C)(C)CC[C@]5(C(=O)NCCN)CC[C@@]4(C)[C@]3(C)CC[C@H]2C1(C)C
EC50 [2]: 2 µM | EC50 [3]: 1.7 µM | EC50 [4]: 3.1 µM | EC50 [5]: 4.3 µM | EC50 [6]: 2.1 µM

Cc1cc(C)n2c1C=C1C=CC(CCC(=O)O)=[N+]1[B-]2(F)F
EC50 [1]: > 30 µM | EC50 [2]: > 30 µM | EC50 [3]: > 30 µM | EC50 [4]: > 30 µM | EC50 [5]: > 30 µM | EC50 [6]: > 30 µM

CC(=O)O[C@H]1CC[C@]2(C)[C@H]3CC=C4[C@@H]5[C@@H](C)[C@H](C)CC[C@]5(C(=O)NCCN)CC[C@@]4(C)[C@]3(C)CC[C@H]2C1(C)C
EC50 [2]: 1.8 µM | EC50 [3]: 2 µM | EC50 [4]: 2.3 µM | EC50 [5]: 3.7 µM | EC50 [6]: 2.6 µM

CC(=O)O[C@H]1CC[C@]2(C)[C@H]3CC=C4[C@@H]5[C@@H](C)[C@H](C)CC[C@]5(C(=O)NCCNC(=O)CCC5=[N+]6C(=Cc7c(C)cc(C)n7[B-]6(F)F)C=C5)CC[C@@]4(C)[C@]3(C)CC[C@H]2C1(C)C
EC50 [1]: 4 µM | EC50 [2]: > 30 µM | EC50 [3]: 2.2 µM | EC50 [4]: 8.7 µM | EC50 [5]: 5.7 µM | EC50 [6]: 3 µM

C=C(C)[C@@H]1CC[C@]2(C(=O)N3CCN(C(=O)CCC4=[N+]5C(=Cc6c(C)cc(C)n6[B-]5(F)F)C=C4)CC3)CC[C@]3(C)[C@H](CC[C@@H]4[C@@]5(C)CC[C@H](OC(C)=O)C(C)(C)[C@@H]5CC[C@]43C)[C@@H]12
EC50 [1]: > 30 µM | EC50 [2]: > 30 µM | EC50 [3]: > 30 µM | EC50 [4]: > 30 µM | EC50 [5]: > 30 µM | EC50 [6]: > 30 µM

CC(=O)O[C@H]1CC[C@]2(C)[C@H]3C(=O)C=C4[C@@H]5C[C@@](C)(C(=O)NCCNC(=O)CCC6=[N+]7C(=Cc8c(C)cc(C)n8[B-]7(F)F)C=C6)CC[C@]5(C)CC[C@@]4(C)[C@]3(C)CC[C@H]2C1(C)C
EC50 [1]: 23.9 µM | EC50 [2]: 26.5 µM | EC50 [3]: 7.2 µM | EC50 [4]: 18.4 µM | EC50 [5]: > 30 µM | EC50 [6]: > 30 µM
